Assay results published in article PMC7462607 (eLife, 2020).
Where two headings read alike, the source gives them in different places.

B1: HBx peptide (α-helical motif of the hepatitis B virus X protein) (peptide)
peptide: ILPKVLHKRTLGLS
notes: peptide corresponding to the α-helical motif of hepatitis B virus X protein (HBx); also called HBx peptides; source: synthetic peptide (ChinaPetides, purity 96%)

Assays:
CCNK-luc reporter = test: CCNK-luc degradation assay; assay type: cell-based, Homo sapiens
Method: The ORF for CCNK was fused with the firefly luciferase (luc) sequence and inserted into the pCDNA3.1 vector. For setting up cells for co-transfection, 0.6 million 293 T cells were seeded per well in 6-well plates and allowed to attach to plates overnight. These cells were then transfected with 50 ng of pCDNA3.1-3xFLAG-CDK12 kinase domain, 50 ng of pCDNA3.1-CCNK-luc, and 400 ng of the empty pCDNA3.1 vector. Twenty-four hours later, transfected cells were dissociated by trypsin digestion and then plated in 96-well white plates. After overnight attachments, cells were then treated with HQ461 and its analog derivatives for 8 hr followed by measurements of luciferase activity with Bright-Glo luciferase assay system (Promega, Madison, USA). Half maximal CCNK-degradation concentrations (DC50) of HQ461 and its active analogs were interpolated by curve fitting with GraphPad Prism using baseline correction (by normalizing to DMSO control), the asymmetric (five parameter) equation, and least squares fit.

CCNK = test: Western blotting of CCNK protein level in A549 cells; assay type: cell-based, Homo sapiens; conditions: for effect on HQ461-dependent CCNK degradation: A549 treated with HQ461 plus inhibitor; for CCNK degradation by compound alone: A549; for effect on HQ461-induced CCNK degradation: A549 treated with inhibitor prior to HQ461 treatment
Method: Standard SDS-PAGE and western blotting procedures were used with the following modifications. For preparation of total lysates, cells were rinsed with DPBS to remove residual medium and then lysed in 20 mM HEPES-NaOH, pH 8.0, 10 mM NaCl, 2 mM MgCl2, 1% SDS freshly supplemented with 0.5 units/µL of benzonase and 1x cOmplete, Mini, EDTA-free protease inhibitor cocktail (Roche, Bazel, Switzerland). Protein concentrations of the resulting lysates were quantified by the BCA method. Between 30 to 60 µg of proteins were resolved on SDS-PAGE and transferred to nitrocellulose membranes with a pore size of 0.5 μm. Membranes were blocked in 5% nonfat milk PBST (0.1% v/v Tween-20) for 30 min before blotting with antibodies. The following primary antibodies were used by dilution in 5% nonfat milk PBST: anti-NRF2 (Abcam, Cambridge, UK, ab62352, 1:4,000), anti-β-Actin-HRP (Huaxingbio, Beijing, China, HX18271,1:10,000), anti-α-Tubulin-HRFP (MBL Life Science, Japan, PM054-7, 1:10,000), anti-DDB1 (Abcam, Cambridge, UK, ab109027, 1:10,000), anti-RBX1 (Proteintech, Wuhan, China, 14895–1-AP, 1:5,000), anti-UBE2G1 (Proteintech, Wuhuan, China, 12012–1-AP, 1:2,000), anti-CDK12 (Cell Signaling Technology, Danvers, USA, 11973S,1:4,000), anti-CCNK (Bethyl lab, Montgomery, USA, A301-939A-T,1:4,000), anti-FLAG-HRP (Sigma-Aldrich, MO, USA, A8592, 1:10,000), anti-HA (BioLegend, San Diego, USA, 901533, 1:4,000), anti-RNA polymerase II subunit B1 (phospho CTD Ser-2) clone 3E10 (Sigma-Aldrich, MO, USA, 04–1571, 1:5,000), and anti-RNA polymerase II CTD repeat YSPTSPS antibody clone 8WG16 (Abcam, Cambridge, UK, ab817, 1:5,000). The following HRP-linked secondary antibodies were used by dilution in PBST: anti-rabbit IgG (Cell Signaling Technology, Danvers, USA, 7074S, 1:10,000), anti-mouse IgG (Zsbio, Beijing, China, ZB-2305, 1:10,000), and anti-rat IgG, (Sino Biological, Beijing, China, SSA005, 1:10,000). M5 HiPer ECL Western HRP Substrate (Mei5bio, Beijing, China, MF074-01) was used for the detection of HRP enzymatic activity. Western blot images were taken with a VILBER FUSION FX7 imager.

[1] = target: T1, FLAG-Avi-DDB1 and His-CDK12KD/His-CCNKΔC (WT) (Homo sapiens, UniProt Q9NYV4); test: AlphaScreen assay, WT; assay type: binding; conditions: preincubated with 5 µM THZ531
T1 construct: Human CDK12KD (residues 715–1052); made in house; host or cells: Sf9 or High Five (CDK12KD/CCNKΔC, co-infected with yeast CAK1); 293F with BirA (FLAG-Avi-DDB1)
T1 sequence (Q9NYV4 715-1052 limits assumed, stated change not applied): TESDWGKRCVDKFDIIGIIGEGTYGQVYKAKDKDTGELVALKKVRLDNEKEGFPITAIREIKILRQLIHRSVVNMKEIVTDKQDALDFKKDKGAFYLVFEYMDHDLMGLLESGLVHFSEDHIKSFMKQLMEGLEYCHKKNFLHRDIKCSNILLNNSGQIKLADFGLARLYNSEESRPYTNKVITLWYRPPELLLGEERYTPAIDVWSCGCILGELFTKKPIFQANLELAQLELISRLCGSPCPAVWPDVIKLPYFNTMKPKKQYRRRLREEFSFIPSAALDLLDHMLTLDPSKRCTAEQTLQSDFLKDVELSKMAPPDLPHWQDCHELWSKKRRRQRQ
T1 sequence (O75909 11-267 partner limits assumed): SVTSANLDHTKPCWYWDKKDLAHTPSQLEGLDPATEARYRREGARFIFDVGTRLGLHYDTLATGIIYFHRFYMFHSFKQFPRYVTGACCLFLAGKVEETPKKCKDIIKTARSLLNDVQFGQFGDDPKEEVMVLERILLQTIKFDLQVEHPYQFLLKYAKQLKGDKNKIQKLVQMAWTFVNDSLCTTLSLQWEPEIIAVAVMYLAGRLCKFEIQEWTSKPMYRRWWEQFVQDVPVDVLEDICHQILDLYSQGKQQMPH
T1 sequence (Q16531 whole entry partner, the tested form may be a part): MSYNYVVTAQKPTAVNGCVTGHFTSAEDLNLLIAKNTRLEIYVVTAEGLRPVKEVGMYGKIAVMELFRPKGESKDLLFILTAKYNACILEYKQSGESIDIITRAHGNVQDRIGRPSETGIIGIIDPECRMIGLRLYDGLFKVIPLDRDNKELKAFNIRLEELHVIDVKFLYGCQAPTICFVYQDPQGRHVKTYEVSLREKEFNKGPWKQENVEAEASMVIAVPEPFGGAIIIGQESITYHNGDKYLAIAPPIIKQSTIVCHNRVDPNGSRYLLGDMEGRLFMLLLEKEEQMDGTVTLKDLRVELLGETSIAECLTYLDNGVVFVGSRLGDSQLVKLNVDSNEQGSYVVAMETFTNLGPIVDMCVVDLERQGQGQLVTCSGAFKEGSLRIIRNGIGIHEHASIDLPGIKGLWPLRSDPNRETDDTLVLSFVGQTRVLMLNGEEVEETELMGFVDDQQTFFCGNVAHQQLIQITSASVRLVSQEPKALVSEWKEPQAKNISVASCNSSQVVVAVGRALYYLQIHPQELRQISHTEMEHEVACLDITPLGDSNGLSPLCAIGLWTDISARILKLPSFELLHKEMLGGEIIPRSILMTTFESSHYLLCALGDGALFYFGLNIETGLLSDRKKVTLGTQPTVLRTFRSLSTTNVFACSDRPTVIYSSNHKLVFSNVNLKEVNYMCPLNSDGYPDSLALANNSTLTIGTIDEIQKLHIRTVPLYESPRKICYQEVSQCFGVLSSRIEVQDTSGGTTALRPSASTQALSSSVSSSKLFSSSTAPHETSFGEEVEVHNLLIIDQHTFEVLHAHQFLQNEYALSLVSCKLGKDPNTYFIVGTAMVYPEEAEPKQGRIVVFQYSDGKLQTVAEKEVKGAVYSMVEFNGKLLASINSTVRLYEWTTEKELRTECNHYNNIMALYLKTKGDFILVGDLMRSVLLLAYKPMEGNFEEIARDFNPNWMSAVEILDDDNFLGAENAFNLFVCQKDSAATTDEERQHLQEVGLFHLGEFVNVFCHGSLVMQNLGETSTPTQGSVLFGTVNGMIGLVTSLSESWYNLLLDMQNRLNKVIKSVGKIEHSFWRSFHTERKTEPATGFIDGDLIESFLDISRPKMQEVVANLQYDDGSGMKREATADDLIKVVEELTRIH
Method: Biotinylated FLAG-Avi-DDB1 (3 µM) and 6xHis-CDK12KD/6xHis-CCNKΔC (WT or G731E/R mutants) (3 µM) were mixed in an assay buffer (50 mM HEPES, pH7.5, 300 mM NaCl, 0.5 mM TCEP, 0.1% NP-40, 0.1% BSA) and a serial dilution of HQ461.The protein-compound mix was transferred to 384-well plates (Corning, Corning, USA); 15 μL per well. After a 1 hr room temperature incubation, 10 µL of nickel chelate (Ni-NTA) acceptor beads (PerkinElmer, Waltham, USA, Waltham, USA, 6760619C) (1:100 diluted with assay buffer) was added per well. After incubation in the dark for 1 hr at room temperature, 10 μL of streptavidin donor beads (PerkinElmer, Waltham, USA, 6760619C) (1:100 diluted in assay buffer) was added per well. After another 1 hr incubation, AlphaScreen signal was measured on the EnVision multimode plate reader (PerkinElmer, Waltham, USA). For THZ531 competition, FLAG-Avi-DDB1, 6xHis-CDK12KD/6xHis-CCNKΔC mix was preincubated with 5 μM of THZ531 for 30 min on ice followed by the procedures described above.

[2] = target: T2, DDB1ΔBPB (DDB1 without its BPB domain) (human, UniProt Q16531-1 1-1140, removing residues 400–704); test: differential scanning fluorimetry; 5 µM DDB1ΔBPB with 10 µM HBx peptide; SYPRO Orange; 50 mM HEPES pH 7.5, 300 mM NaCl, 0.5 mM TCEP; 10°C to 95°C; conditions: both partners purified
T2 construct: also called Strep-8×His-DDB1ΔBPB
T2 sequence (Q16531 other isoform, or with tags, fused parts or gaps with the stated changes): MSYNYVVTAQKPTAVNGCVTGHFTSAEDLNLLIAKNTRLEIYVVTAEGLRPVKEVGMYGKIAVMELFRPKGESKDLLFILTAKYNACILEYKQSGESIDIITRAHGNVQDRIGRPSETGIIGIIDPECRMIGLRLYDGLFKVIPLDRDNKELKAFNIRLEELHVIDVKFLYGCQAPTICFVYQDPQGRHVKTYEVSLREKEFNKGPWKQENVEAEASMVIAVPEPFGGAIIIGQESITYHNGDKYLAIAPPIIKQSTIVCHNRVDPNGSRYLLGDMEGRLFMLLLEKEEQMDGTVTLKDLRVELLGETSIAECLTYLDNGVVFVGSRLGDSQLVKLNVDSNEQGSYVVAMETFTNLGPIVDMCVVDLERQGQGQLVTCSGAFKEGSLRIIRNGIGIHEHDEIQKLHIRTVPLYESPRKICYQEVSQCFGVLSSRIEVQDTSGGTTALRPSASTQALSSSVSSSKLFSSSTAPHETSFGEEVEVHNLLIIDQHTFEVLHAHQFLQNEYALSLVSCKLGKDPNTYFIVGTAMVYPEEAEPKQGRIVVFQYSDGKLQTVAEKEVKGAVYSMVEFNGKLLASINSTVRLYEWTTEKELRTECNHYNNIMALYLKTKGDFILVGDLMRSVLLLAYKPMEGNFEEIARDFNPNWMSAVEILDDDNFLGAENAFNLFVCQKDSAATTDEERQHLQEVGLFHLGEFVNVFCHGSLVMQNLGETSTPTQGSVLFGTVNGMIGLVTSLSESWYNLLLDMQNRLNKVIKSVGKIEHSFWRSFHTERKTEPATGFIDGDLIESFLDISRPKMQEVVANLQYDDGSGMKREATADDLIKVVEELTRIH

[3] = 293T, 8 hr, read-out: DC50 (half maximal CCNK-degradation concentration)

Row | Molecule | DC50 (CCNK-luc reporter; [3]) [nM] | Dmax (10 μM), percentage of CCNK degradation relative to DMSO control (CCNK-luc reporter; 8 hr) [%] | further results
1 | Cc1cnc(NC(=O)Cc2csc(Nc3cccc(C(F)(F)F)n3)n2)s1 [HQ009, N-(5-methylthiazol-2-yl)−2-(2-((6-(trifluoromethyl)pyridin-2-yl)amino)thiazol-4-yl)acetamide] | 2360 | – | –
2 | NS(=O)(=O)OC[C@@H]1C[C@@H](n2ccc3c(N[C@H]4CCc5ccccc54)ncnc32)C[C@@H]1O [MLN4924] | – | – | effect on HQ461-dependent CCNK degradation (CCNK): abrogated HQ461-dependent CCNK degradation
3 | COc1cccc(Nc2nc(CC(=O)Nc3ncc(C)s3)cs2)n1 [HQ006, 2-(2-((6-methoxypyridin-2-yl)amino)thiazol-4-yl)-N-(5-methylthiazol-2-yl)acetamide] | 466 | – | –
4 | Cc1cnc(NC(=O)Cc2csc(Nc3ccccn3)n2)s1 [HQ010, N-(5-methylthiazol-2-yl)−2-(2-(pyridin-2-ylamino)thiazol-4-yl)acetamide] | 811 | – | fold increase in DC50 relative to HQ461 (CCNK-luc reporter): 6 fold
5 | Cc1cccc(Nc2nc(CC(=O)NC(C)c3ccccc3)cs2)n1 (centres unmarked) [HQ015] | – | 8.6 | –
6 | Cc1cnc(NC(=O)Cc2csc(Nc3cccc(Cl)n3)n2)s1 [HQ002, 2-(2-((6-chloropyridin-2-yl)amino)thiazol-4-yl)-N-(5-methylthiazol-2-yl)acetamide] | 471 | – | –
7 | CC(C)C[C@H](NC(=O)[C@H](Cc1ccccc1)NC(=O)c1cnccn1)B(O)O [bortezomib] | – | – | effect on HQ461-dependent CCNK degradation (CCNK): abrogated HQ461-dependent CCNK degradation
8 | NC(=O)CNC(=O)Cc1csc(Nc2ccccn2)n1 [HQ022] | – | 25.7 | –
9 | Cc1cnc(NC(=O)Cc2csc(Nc3cccc(CO)n3)n2)s1 [HQ005, 2-(2-((6-(hydroxymethyl)pyridin-2-yl)amino)thiazol-4-yl)-N-(5-methylthiazol-2-yl)acetamide] | – | 86.5 | fold increase in potency relative to HQ461 (CCNK-luc reporter): 3 fold; DC50 (CCNK-luc reporter; read-out: DC50): 41 nM
10 | CCc1cccc(Nc2nc(CC(=O)Nc3ncc(C)s3)cs2)n1 [HQ004, 2-(2-((6-ethylpyridin-2-yl)amino)thiazol-4-yl)-N-(5-methylthiazol-2-yl)acetamide] | 542 | – | –
11 | Cc1ccnc(Nc2nc(CC(=O)Nc3nc4c(s3)CCCC4)cs2)c1 [HQ018] | – | 18.8 | –
12 | CCc1cnn2c(NCc3ccc[n+]([O-])c3)cc(N3CCCC[C@H]3CCO)nc12 [dinaciclib] | – | – | CCNK degradation by compound alone (CCNK): Neither THZ531 nor dinaciclib treatment caused CCNK degradation; effect on HQ461-induced CCNK degradation (CCNK): prevented CCNK degradation
13 | Cc1cnc(NC(=O)Cc2csc(Nc3cccc(F)n3)n2)s1 [HQ001, 2-(2-((6-fluoropyridin-2-yl)amino)thiazol-4-yl)-N-(5-methylthiazol-2-yl)acetamide] | 300 | – | –
14 | CC(=O)Nc1nc(CC(=O)Nc2ncc(C)s2)cs1 [HQ019] | – | 62.0 | CCNK degradation activity relative to HQ461 (CCNK-luc reporter): losses in activity
15 | Cc1cnc(NC(=O)Cc2csc(Nc3cccc(N)n3)n2)s1 [HQ007, 2-(2-((6-aminopyridin-2-yl)amino)thiazol-4-yl)-N-(5-methylthiazol-2-yl)acetamide] | 561 | – | –
16 | NC(=O)c1ccccc1NC(=O)Cc1csc(Nc2ccccn2)n1 [HQ021] | – | 7.8 | –
17 | CN(C)C/C=C/C(=O)Nc1ccc(C(=O)N2CCC[C@@H](Nc3ncc(Cl)c(-c4c[nH]c5ccccc45)n3)C2)cc1 [THZ531] | – | – | CCNK degradation by compound alone (CCNK): Neither THZ531 nor dinaciclib treatment caused CCNK degradation; effect on HQ461-induced CCNK degradation (CCNK): prevented CCNK degradation; effect on HQ461-dependent formation of the CDK12KD/CCNKΔC/DDB1 complex [1]: inhibited HQ461-dependent formation of the CDK12KD/CCNKΔC/DDB1 complex
18 | O=C(Cc1csc(Nc2ccccn2)n1)NCc1nc2ccccc2[nH]1 [HQ020] | – | 15.5 | –
19 | Cc1cnc(NC(=O)Cc2csc(NC(=O)c3cccc(Br)n3)n2)s1 [HQ014, 6-bromo-N-(4-(2-((5-methylthiazol-2-yl)amino)−2-oxoethyl)thiazol-2-yl) Picolinamide] | – | 9.9 | CCNK degradation activity relative to HQ461 (CCNK-luc reporter): losses in activity
20 | CCc1ccccc1NC(=O)Cc1csc(Nc2ccccn2)n1 [HQ023] | – | 3.0 | –
21 | Nc1nc(CC(=O)Nc2nc(-c3ccco3)cs2)cs1 [HQ013, 2-(2-aminothiazol-4-yl)-N-(4-(furan-2-yl)thiazol-2-yl)acetamide] | – | 8.6 | –
22 | Cc1cnc(NC(=O)Cc2csc(Nc3cccc(-n4cccn4)n3)n2)s1 [HQ008, 2-(2-((6-(1H-pyrazol-1-yl)pyridin-2-yl)amino)thiazol-4-yl)-N-(5-methylthiazol-2-yl)acetamide] | 5030 | – | fold increase in DC50 relative to HQ461 (CCNK-luc reporter): 38 fold
23 | Cc1cnc(NC(=O)Cc2csc(N)n2)s1 [HQ011, 2-(2-aminothiazol-4-yl)-N-(5-methylthiazol-2-yl)acetamide] | – | – | CCNK degradation activity relative to HQ461 (CCNK-luc reporter): losses in activity
24 | Cc1cnc(NC(=O)Cc2csc(Nc3cccc(Br)n3)n2)s1 [HQ003, 2-(2-((6-bromopyridin-2-yl)amino)thiazol-4-yl)-N-(5-methylthiazol-2-yl)acetamide] | 407 | – | –
25 | Cc1cccc(Nc2nc(CC(N)=O)cs2)n1 [HQ017] | – | 4.2 | –
26 | B1 | – | – | increase in Tm [2]: 2 °C
